Measurements published in patent US6703413B2 (Rhode Island Hospital, priority 1999, dated 2004).
Where two headings read alike, the source gives them in different places.

Assays:
[1] = test system: NIH-3T3 murine fibroblasts; assay: Cell cycle distribution and sub-G0/G1 DNA debris, flow cytometry; format: cell-based; details: NIH-3T3, 48 h
Protocol: (§1) Three×10^5 cells were seeded in plastic tissue culture flasks. […] Control cultures received an appropriate volume of Kollidine-17P. […] The percentage of DNA debris in the sub-G0/G1 region was assessed using cytofluorometric techniques. Each bar represents the mean (±SE) of three determinations. ** p≦0.01, *** p≦0.001, **** p≦0.0001
(§2) For flow cytometry studies, 1×10^6 PA-1, SKOV-3, or NIH-3T3 cells were incubated for 24 h in appropriate media containing serum. […] Control cultures for each cell line were incubated in media containing 40 μl of 5% Kollidon 17 PF alone. Forty-eight hours later, all cells were harvested by trypsinization and prepared for cytofluorometric analysis by standard methods. For example, harvested cells were resuspended in ice cold phosphate-buffered saline at a final cell density of 2×10^6 cells/ml. The cells then were stained for 30 min at room temperature in the dark with a solution of 0.05 mg/ml propidium iodide, 0.6% Igepal, and 1% sodium citrate. Flow cytometry was performed by FACScan (Becton Dickinson, Plymouth, England) using the ModFit LT program (Becton Dickinson). Statistical analysis was performed with the Kruskal Wallis non-parametric ANOVA test followed by Dunn's multiple comparisons test using Instat.
(§3) Three×10^5 cells were seeded in plastic tissue culture flasks. […] Control cultures received an appropriate volume of Kollidine-17P. After an additional 48 h, cells were harvested, stained with propidium iodide, and cell cycle distribution assessed using cytofluorometric techniques. Each value represents the percentage of cells in the noted cell cycle phases and is the mean±SEM of three determinations.

[2] = test system: SKOV-3 human ovarian tumor cells; assay: as above; format: cell-based; details: for Cell Cycle Distribution, G0G1 / Cell Cycle Distribution, G2/M / Cell Cycle Distribution, S: SKOV3, 48 h
Protocol: as §1, §2, §3

[3] = test system: PA-1 human ovarian tumor cells; assay: as above; format: cell-based; details: for Cell Cycle Distribution, G0G1 / Cell Cycle Distribution, G2/M / Cell Cycle Distribution, S: PA1, 48 h
Protocol: as §1, §2, §3

[4] = test system: HL-60 human promyelocytic cell line; assay: Apoptosis induction in non-adherent cancer cells; format: cell-based
[5] = test system: panel of human and murine tumor cell lines; assay: Cell growth inhibition, panel summary; format: cell-based; details: for IC50: 72 h; for cytotoxic concentration lower than that for antibacterial/antibiotic effect: versus concentrations used to inhibit bacterial cell growth
Protocol: (§4) Parallel studies were carried out to assess whether disruption of cell adhesion played a role in the cytotoxic activity.
One ml of this cell suspension was added to each well of a 12 well cell culture plate that contained 3 ml of appropriate media plus serum. […] Control wells received 40 μl of 5% Kollidon 17 PF alone. Seventy-two hours later, all cells were harvested by trypsinization and cell number determined electronically using a Coulter Model Z1 particle counter (Coulter Corp., Miami, Fla.) to assess cell growth inhibition. Each experiment was performed in duplicate and repeated a minimum of three times.
Cells were seeded at a density of 1-5×10^4 cells in each well of a 6 well tissue culture flask. […] After three days, cells were harvested by trypsinization and cell number determined electronically. Cell growth inhibition was determined by comparison to non-Taurolidine exposed control cultures. The IC50 was calculated as the concentration required to inhibit cell number by 50%.

[6] = test system: human ovarian tumor cells; assay: Growth of established tumor cell colonies in vitro; format: cell-based; details: 24-hour exposure to 50 μM
Protocol: as §4

[7] = test system: SKOV-3 human ovarian tumor cells; assay: Phosphotidylserine externalization, Annexin-V FITC binding; format: cell-based; details: SKOV-3, 24 h exposure
Protocol: (§5) Three×10^5 cells were seeded in plastic tissue culture flasks. […] Control cultures received an appropriate volume of Kollidine-17P. After an additional 24 h, cells were harvested and phosphotidylserine externalization determined by assessing Annexin-V FITC binding using cytofluorometric techniques. Each bar represents the mean±SE of four determinations. ** p≦0.01, *** p0.001
(§6) Cell membrane phosphotidylserine externalization, as a reflection of the potential induction of apoptosis, was assessed by flow cytometry methods using the ApoAlert® Annexin-V/FITC assay kit. Briefly, 1×10^6 cells were incubated for 24 h in tissue culture medium containing serum. […] Control cultures received 5% Kollidon 17 PF alone. Twenty-four hours later, all cells were harvested by trypsinization. The harvested cells were resuspended in 200 μl of binding buffer and then incubated for 5-15 min in a solution containing 1 μg/ml Annexin-V FITC at room temperature in the dark. The cells were then analyzed to quantitate Annexin-V binding by cytofluorometric techniques that utilized FACScan using the ModFit LT program with statistical analysis as described above.

[8] = test system: PA-1 human ovarian tumor cells; assay: as above; format: cell-based; details: PA-1, 24 h exposure
Protocol: as §5, §6

[9] = test system: MDR-transfected glioblastoma cells; assay: Cytotoxicity in drug resistant glioblastoma cells; details: 50 μM
Text: The neoplastic cell lines used in the survey were standard tumor cell lines, e.g., PA1 human ovarian cell line, SKOV3 human ovarian cell line, HT29 human colon tumor cell line, DU145 human prostate tumor cell line, U251 human glioblastoma cell line, U251-MDR human glioblastoma cell line transfected with DNA encoding MDR, T98G human glioblastoma cell line, SP-1 human leukemia cell line, and Daudi human leukemia cell line.
Glioblastoma cells were transfected with a gene encoding multiple drug resistance (MDR).

NIH-3T3 cells = assay: PARP cleavage, Western-blot; format: cell-based, murine; details: NIH-3T3, 24 h exposure to 50 or 100 μM
Protocol: Two×10^6 cells were seeded in 150 cm^2 tissue culture flasks. […] After an additional twenty-four hours, cells were harvested, cell number determined, and aliquots derived from equal cell numbers generated from each exposure condition. Total proteins from these whole cell lysates were separated by SDS-PAGE and transferred to nitrocellulose filters. Filters were then immunoblotted to detect intact PARP protein and cleavage fragments by using the clone C-2-10 mouse monoclonal anti-PARP antibody (Zymed Laboratories, San Francisco, Calif.). The resulting protein-antibody complexes were visualized by chemiluminescence techniques.
Western-blot analysis was used to assess of PARP cleavage. Two×10^6 cells were seeded into separate 75 cm^2 tissue culture flasks containing 20 ml of tissue culture media plus serum. […] Twenty-four hours after the addition of Taurolidine, cells were harvested cell number determined, and aliquots containing an equal cell number were generated from each exposure condition. Total proteins from whole cell lysates generated from these aliquots were separated by SDS-PAGE and electrotransferred to nitrocellulose filters. Filters were then processed to detect intact PARP protein and cleavage fragments by using the clone C-2-10 mouse monoclonal anti-PARP antibody (Zymed Laboratories, San Francisco, Calif.). […]

O=S1(=O)CCN(CN2CCS(=O)(=O)NC2)CN1 [Taurolidine, Bis-(1,1-dioxoperhydro-1,2,4-thiadiazinyl-4)methane]
Cell Cycle Distribution, G0G1 ([1]; 25 μM): 42.5 ± 9.6% | Cell Cycle Distribution, G2/M ([1]; 25 μM): 13.0 ± 4.0% | Cell Cycle Distribution, S ([1]; 25 μM): 44.9 ± 5.6% | Cell Cycle Distribution, G0G1 ([1]; 50 μM): 33.9 ± 10.2% | Cell Cycle Distribution, G2/M ([1]; 50 μM): 21.8 ± 4.6% | Cell Cycle Distribution, S ([1]; 50 μM): 44.3 ± 5.9% | Cell Cycle Distribution, G0G1 ([1]; 100 μM): 25.8 ± 1.7% | Cell Cycle Distribution, G2/M ([1]; 100 μM): 11.0 ± 11.0% | Cell Cycle Distribution, S ([1]; 100 μM): 63.2 ± 9.8% | DNA debris in the sub-G0/G1 region ([1]; 25-100 μM): did not significantly affect the appearance of DNA debris | Cell Cycle Distribution, G0G1 ([2]; 25 μM): 45.8 ± 2.7% | Cell Cycle Distribution, G2/M ([2]; 25 μM): 12.3 ± 3.1% | Cell Cycle Distribution, S ([2]; 25 μM): 41.9 ± 4.2% | Cell Cycle Distribution, G0G1 ([2]; 50 μM): 30.7 ± 9.4% | Cell Cycle Distribution, G2/M ([2]; 50 μM): 30.3 ± 10.5% | Cell Cycle Distribution, S ([2]; 50 μM): 45.5 ± 12.4% | Cell Cycle Distribution, G0G1 ([2]; 100 μM): 19.9 ± 6.1% | Cell Cycle Distribution, G2/M ([2]; 100 μM): 25.9 ± 7.8% | Cell Cycle Distribution, S ([2]; 100 μM): 54.2 ± 8.6% | DNA debris in the sub-G0/G1 region ([2]; SKOV-3, 48 h, 25-100 μM): appearance of DNA debris in the sub-G0G1 region | Cell Cycle Distribution, G0G1 ([3]; 25 μM): 28.4 ± 0.5% | Cell Cycle Distribution, G2/M ([3]; 25 μM): 24.7 ± 0.9% | Cell Cycle Distribution, S ([3]; 25 μM): 46.8 ± 0.6% | Cell Cycle Distribution, G0G1 ([3]; 50 μM): 23.7 ± 2.2% | Cell Cycle Distribution, G0G1 ([3]; 100 μM): 28.4 ± 5.6% | Cell Cycle Distribution, G2/M ([3]; 100 μM): 27.2 ± 17.9% | Cell Cycle Distribution, S ([3]; 100 μM): 44.5 ± 23.5% | DNA debris in the sub-G0/G1 region ([3]; PA-1, 48 h, 25-100 μM): appearance of DNA debris in the sub-G0G1 region | exposure time that induces apoptosis [4]: 90 min | IC50 ([5]; 3 d exposure, panel of human and murine tumor cell lines, read-out: IC50s over all cell lines evaluated): 10 to 50 µM | IC50 ([5]; 3-day exposure, human cancer cell lines, read-out: concentration required to inhibit tumor cell growth (IC50)): 12.5 to 50 µM | cytotoxic concentration lower than that for antibacterial/antibiotic effect [5]: approximately 100 fold | cytotoxic concentration lower than that for antibacterial/antibiotic effect ([5]; listed as taurolidine): at least 1000 fold | cytotoxic effect against growth of established tumor cells [6]: significant cytotoxic effect | increase in Annexin-V binding [7]: 3 fold | increase in Annexin-V binding [8]: 4 fold | cytotoxicity [9]: Significant cytotoxicity | PARP cleavage (NIH-3T3 cells): little evidence of this proteolytic event
